Common to all, as to assay: NCI tumour cell line growth inhibition, 48 h
For assay [1], the system named is COLO 205.
Assay [2] deals with MDA-MB-231.
For assay [3], the system named is LOX IMVI.
The subject of assay [4] is SK-MEL-28.
For assay [5], the system named is NCI-H460.
The subject of assay [6] is HCT-15.
Assay [7] deals with OVCAR-4.
Assay [8] concerns NCI-H226.
The subject of assay [9] is OVCAR-3.
The test system of assay [10] is A498.
For assay [11], the system named is PC-3.
Assay [12] relates to UACC-257.
In assay [13] the test system is CCRF-CEM.
The test system of assay [14] is SR.
In assay [15] the test system is T47D.
Assay [16] relates to HOP-92.
The subject of assay [17] is SF-268.
Assay [18] has as its system Malme-3M.
Assay [19] has as its system DU-145.
For assay [20], the system named is OVCAR-5.

Here are results for 4 compounds from ChEMBL document CHEMBL1201862, “PubChem BioAssay data set” (2004).

The structures appear in SMILES notation.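 Values below derive from 48-hour exposures of cells grown in 96-well plates, with endpoints linearly interpolated between the two concentrations bracketing the appropriate inhibition level. The concentration for 50% growth inhibition is given as GI50.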 Activity calls are given as the source filed them. Rule as the data show it: active = GI50 up to about 1.1 µM and inactive = higher.

`COc1ccc2nc3cc(Cl)ccc3c(Nc3ccccc3-c3ccccc3Nc3c4ccc(Cl)cc4nc4ccc(OC)cc34)c2c1`: the GI50 is 32.6 µM (inactive) in assay [1]; 26.9 µM (inactive) in assay [2]; 18.2 µM (inactive) in assay [3]; 41.8 µM (inactive) in assay [4]; 33.6 µM (inactive) in assay [5]; 14.3 µM in [6]. Besides, the GI50 is 17.4 µM (inactive) in assay [7]; > 41.1 µM (inactive) in [8]; 45.4 µM (inactive) in assay [9]; > 56.5 µM (inactive) in assay [10]; 11.3 µM (inactive) in assay [11]; 27.5 µM (inactive) in assay [12]. The GI50 in assay [13] is 4.52 µM (inactive); in [14] it was 3.5 µM (inactive); in assay [15], 13.1 µM (inactive); in [16] it was 31.8 µM (inactive); in assay [17], 31.9 µM (inactive); in assay [18], 35.2 µM (inactive). For the same compound, the GI50 in assay [19] was 69.3 µM (inactive); in [20], 37.8 µM (inactive).
Consider `CC12c3c4cccc3Oc3cc(N)cc(c31)Oc1cc(N)cc(c12)O4`, for which the GI50 is 3.29 µM (inactive) in assay [1]; 3.5 µM (inactive) in [2]; 6 µM (inactive) in assay [3]; 6.21 µM (inactive) in [4]; 3.48 µM (inactive) in assay [5]; 4.14 µM in assay [6]. The GI50 in assay [7] is 10.4 µM (inactive); in assay [8], 5.62 µM (inactive); in assay [9], 2.41 µM (inactive); in assay [10] it was 2.74 µM (inactive); in assay [11], 3.58 µM (inactive); in assay [12], 5.71 µM (inactive). Moreover, the GI50 in assay [13] is 0.736 µM (active); in assay [14] it was 6.22 µM (inactive); in assay [15], 9.98 µM (inactive); in [16], 21.4 µM (inactive); in assay [17] it was 4.31 µM (inactive); in assay [18], 2.99 µM (inactive). For the same compound, the GI50 in assay [19] is 5.52 µM (inactive); in assay [20] it was 4.31 µM (inactive).
As for `CC(=O)OC1CCC2(C)C(=CCC3C4CCC5(OC6CC(C)CN(C(C)=O)C6C5C)C(C)=C4C(=O)C32)C1` (stereo not given), the GI50 was 14 µM (inactive) in assay [1]; 17.2 µM (inactive) in [2]; 12 µM (inactive) in assay [3]; > 100 µM (inactive) in assay [4]; 15.7 µM (inactive) in assay [5]; 15.7 µM in [6]. Besides, the GI50 in [7] is 15.4 µM (inactive); in assay [8], 22.2 µM (inactive); in assay [9], 18.8 µM (inactive); in [10], 15.8 µM (inactive); in assay [11], 14.3 µM (inactive); in [12] it was 13.6 µM (inactive). In addition, the GI50 in assay [13] was > 100 µM (inactive); in assay [14], 16 µM (inactive); in assay [15] it was 7.76 µM (inactive); in assay [16], 15 µM (inactive); in assay [17] it was 16 µM (inactive); in assay [18] it was 15.2 µM (inactive). The GI50 in [19] was 30.8 µM (inactive); in [20] it was 19.2 µM (inactive).
Regarding `Cc1c(/N=N/c2ccc([N+](=O)[O-])cc2)nc2scc(-c3ccccc3)n12`, the GI50 was > 100 µM (inactive) in assay [1]; > 100 µM (inactive) in [2]; 57.1 µM (inactive) in [3]; > 100 µM (inactive) in [4]; 71.9 µM (inactive) in assay [5]; 31.6 µM in assay [6]. Also, the GI50 in assay [7] was > 100 µM (inactive); in assay [8], > 100 µM (inactive); in [9], > 100 µM (inactive); in assay [10], > 100 µM (inactive); in assay [11] it was 68.5 µM (inactive); in [12], > 100 µM (inactive). The GI50 is 21.7 µM (inactive) in [13]; 19.5 µM (inactive) in [14]; > 70.8 µM (inactive) in assay [15]; > 100 µM (inactive) in assay [16]; > 82.4 µM (inactive) in assay [17]; > 100 µM (inactive) in [18]. In addition, the GI50 in [19] was > 100 µM (inactive); in assay [20] it was > 66.7 µM (inactive).
